Laboratory results taken from patent US12234476B2, “VCN enhancer compositions and methods of using the same” (bluebird bio, Inc., priority 2016, dated 2025).

Tests used:
hCD34+ cells [1] = test: Vector copy number (VCN) analysis by qPCR of lentivirus-transduced hCD34+ cells (pooled or individual MethoCult colonies, liquid culture); type: cell-based, human; settings: for VCN with increasing concentrations of PGE2: pooled colonies
Procedure: (§1) Washed cells were resuspended in 2 mL Stem Cell Growth Medium (SCGM)+cytokines and transferred to a standard 12-well non-adherent tissue culture plate. Cells were maintained for an additional 6 days in a standard humidified tissue culture incubator (5% CO2) and then subjected to Vector Copy Number (VCN) analysis or single-cell nested PCR to determine transduction efficiency. Both VCN and the single-cell nested PCR assay were performed with qPCR using primers and probes specific to both the vector and an endogenous control gene. VCN was determined by dividing the amount of vector signal by the amount of the endogenous control gene. For the single-cell nested PCR assay, wells that contained a cell positive for the endogenous control gene and wells that contained a marked cell positive for both the vector and the endogenous control gene were enumerated, and the proportion of marked cells, or transduction efficiency, was calculated.
(§2) Washed cells were resuspended in 200 μL SCGM and then transferred to 3 mL aliquots of cytokine-supplemented methylcellulose (for example, Methocult M4434 Classic). 1.1 mL was then transferred to parallel 35-mm tissue culture dishes using a blunt 16-gauge needle. Dishes were maintained in a standard humidified tissue culture incubator for 12-16 days and colonies were scored for size, morphology, and cellular composition. Individual colonies were then picked for subsequent VCN analysis or the contents of an entire 35-mm dish were pooled and then subject to VCN analysis.

hCD34+ cells [2] = test: Transduction efficiency / % LVV+ (single-cell nested PCR or individual colony qPCR); type: cell-based, human; settings: for transduction efficiency: low-transducing cell lot, individual colony qPCR (Example 11)
Procedure: as §1
After a 7 day liquid culture, cells were collected and single-cell sorted into a 96-well plate. Cells were lysed and subjected to nested PCR to determine presence of LVV in a single cell. Percentage of cells containing both LVV and an endogenous control gene was determined from number of cells containing the endogenous control gene. […] FIG. 5B.
% LVV+: Single cells were isolated by FACS and deposited in 96-well plates containing lysis buffer. Following lysis, the viral-specific sequence from a lentiviral vector encoding a β-globin variant was amplified by PCR along with a control genomic sequence not present in the vector. The PCR products from each single cell were then analyzed by qPCR for presence of genomic sequence, indicating a successfully captured cell. […] Fraction of vector positive cells was then calculated across the entire set of sampled cells. The % LVV+ of the β0/β0 hCD34+ cells was about 77%. FIG. 18, right panel.

[3] = system: hCD34+ cells transplanted into NSG mice; test: In vivo VCN of engrafted human cells in bone marrow of NSG mice
Source text: HSCs transduced with lentivirus were transplanted into NOD/SCID Gamma (NSG) mice to assess the effect of candidate compounds on viral transduction of human long-term hematopoietic stem cells. Transduced cells were washed and resuspended in phosphate-buffered saline (PBS) and transplanted into the tail vein of sub-myeloablated adult NSG mice, with minimal residual toxicity. Mice were housed in a pathogen-free environment per standard IACUC animal care guidelines. At 4 months post-transplant bone marrow (BM) was harvested from both femurs and analyzed for both VCN and engraftment of human cells by staining with an anti-hCD45 antibody (BD #561864) followed by flow cytometry analysis.
Meta-analysis of NSG transplants with PGE2-treated lentiviral transduced hCD34+ cells from healthy donors (n=3). Human CD34^+ cells were transplanted into sub-myeloablated female NSG mice and bone marrow (BM) was analyzed at 4 months post-transplant. BM was harvested from both femurs of NSG mice and half of the sample was stained with anti-hCD45 for approximately 30 minutes at 4° C. Following incubation, samples were washed and analyzed for human CD45^+ cells via flow analysis using an anti-hCD45 antibody (BD #561864). […] FIG. 1A. The mean VCN of engrafted PGE2-treated hCD34^+ cells was about two-fold higher than the mean VCN of control cells at 4 months post-transplant. FIG. 1B.
A low-transducing cell lot of hCD34^+ cells (VCN of 0.3 under standard conditions) was transduced with lentiviral vector in the presence of protamine sulfate, PGE2, F108 (200 μg/mL or 1000 μg/mL), or the combination of PGE2 and F108 for 24 hours. Following transduction, cells were washed and immediately injected into busulfan-treated NSG mice.
Two months post-transplant, 5 mice/group were sacrificed and BM was harvested and analyzed to evaluate in vivo VCN. The in vivo VCN of engrafted cells transduced in the presence of protamine sulfate was very similar to the graft VCN (˜0.3). in vivo VCN increased approximately 2-fold in PGE2-treated cells. […] FIG. 10C.

[4] = system: hCD34+ cells transplanted into NSG mice; test: Engraftment and differentiation of transduced hCD34+ cells in NSG mice (flow cytometry); type: in vivo
Source text: HSCs transduced with lentivirus were transplanted into NOD/SCID Gamma (NSG) mice to assess the effect of candidate compounds on viral transduction of human long-term hematopoietic stem cells. […] Mice were housed in a pathogen-free environment per standard IACUC animal care guidelines.
Meta-analysis of NSG transplants with PGE2-treated lentiviral transduced hCD34+ cells from healthy donors (n=3). Human CD34^+ cells were transplanted into sub-myeloablated female NSG mice and bone marrow (BM) was analyzed at 4 months post-transplant. BM was harvested from both femurs of NSG mice and half of the sample was stained with anti-hCD45 for approximately 30 minutes at 4° C. […] FIG. 1A. […] FIG. 1B.
The BM was analyzed for engraftment of hCD34^+ cells. Cells were stained with an antibody cocktail recognizing various cell surface markers (CD45, CD33, CD3, CD19) and analyzed via flow cytometry.

hCD34+ cells [5] = test: Colony formation in MethoCult / methylcellulose; type: cell-based, human
Procedure: as §2
Colonies in MethoCult were enumerated using STEMvision (Stemcell Technologies). […] FIG. 3.

[6] = system: long-term HSCs (CD34+CD38-CD45RA-CD90+CD49f+); test: GFP lentiviral vector transduction of phenotypic long-term HSCs (flow cytometry); type: cell-based, human; settings: GFP LVV; 4 days of culture
Source text: Human CD34^+ cells were transduced with a GFP lentiviral vector (LVV) and subsequently cultured in cytokine-containing media. After 4 days of culture, these cells were stained for cell surface markers that phenotypically characterize long-term HSCs (CD34^+CD38^−CD45RA^−CD90^+CD49f^+). […] The proportion of transduced phenotypic long-term HSCs increased to >90% in cells transduced in the presence of F108, with or without the supplementation of PGE2. FIG. 22.

Human CD34+ cells = test: ALDP expression by intracellular staining and flow cytometry; type: cell-based; settings: MND-ABCD1 LVV; AMN, ALD patients and healthy donors; day 4 or 5; vs PS
Source text: Human CD34^+ cells from AMN patients (FIG. 26, panels A-D), ALD patients (FIG. 26, panels E-H), and healthy donors (HD; FIG. 26, panels I-L) were transduced with a lentiviral vector (LVV) lacking a WPRE and comprising an MND promoter operably linked to a polynucleotide encoding ABCD1. […] Cultured cells were stained intracellularly for ALDP expression on day 4 or 5 and analyzed by flow cytometry.

CCCCC[C@H](O)/C=C/[C@H]1[C@H](O)CC(=O)[C@@H]1C/C=C\CCCC(=O)O [PGE2, prostaglandin E2]
fold increase in mean VCN compared to protamine sulfate (hCD34+ cells [1]; 24 hour transduction, 14 day MethoCult pooled colonies (Example 6)): 2 fold
VCN at D7 in cytokine cultured cells and D14 pooled methylcellulose colonies (hCD34+ cells [1]; MND-ABCD1 LVV, AMN, ALD patients and healthy donors): increased VCN
VCN with increasing concentrations of PGE2 (hCD34+ cells [1]; in the presence of F108, PGE2 increased at least 10-fold): does not result in a dose-dependent increase in VCN
VCN with increasing concentrations of PGE2 (hCD34+ cells [1]; in the presence of protamine sulfate): dose-dependent increase in VCN
increase of mean VCN of graft vs protamine sulfate (hCD34+ cells [1]; low-transducing cell lot, 24 hours (Example 11)): approximately 3 fold
transduction efficiency (hCD34+ cells [2]): ~40%
mean VCN of engrafted cells vs control cells ([3]; 4 months post-transplant, healthy donors n=3): about two-fold
increase of in vivo VCN over protamine sulfate ([3]; four months post-transplant): approximately 1.6 fold
increase of in vivo VCN over protamine sulfate ([3]; two months post-transplant): approximately 2 fold
effect on hCD34+ engraftment ([4]; 2 and 4 months post-transplant): no statistically significant effect
proportion of myeloid (CD33+) or lymphoid (CD3+ or CD19+) cells ([4]; 2 and 4 months post-transplant): no significant difference
percentage of hCD45+ cells in mouse BM (engraftment) ([4]; 4 months post-transplant, PGE2-treated vs control-treated): No statistically significant difference
colony formation ability of transduced cells (hCD34+ cells [5]; 24 hour transduction, 14 day MethoCult (Example 4)): did not alter the colony formation ability
proportion of phenotypic long-term HSCs expressing GFP [6]: 45%
number of cells expressing ALDP (Human CD34+ cells): increased the number of cells expressing ALDP

protamine sulfate
VCN of pooled colonies (hCD34+ cells [1]; EF1α-IL2Rγ LVV, MOI 10 or 30): below 1.5
VCN of pooled colonies (hCD34+ cells [1]; EF1α-TPP1 or MND-TPP1 LVV, MOI 5 or 15): below 1.5
distribution of individual colony VCNs (hCD34+ cells [1]; F108 and PGE2 at MOI 10, protamine sulfate at MOI 25): 0-6
% LVV+ colonies (hCD34+ cells [2]; IL2Rγ LVV from PrCL1 or PrCL2): 20-30%
% LVV+ colonies (hCD34+ cells [2]; IL2Rγ LVV, transiently prepared): 50-60%
transduction efficiency (hCD34+ cells [2]): ~20%
in vivo VCN of engrafted cells ([3]; four months post-transplant): ~0.3
in vivo VCN of engrafted cells ([3]; two months post-transplant): ~0.3
ability of hematopoietic progenitors to form colonies (erythroid or myeloid) (hCD34+ cells [5]; 8 μg/mL PS, 10 or 1000 μg/mL F108, 1000 μg/mL F108 with 8 μg/mL PS): Neither PS nor F108 significantly affected
colony formation (hCD34+ cells [5]; IL2Rγ LVV (Example 26)): did not significantly impact colony formation
proportion of phenotypic long-term HSCs expressing GFP [6]: approximately 30%
